From patent US20230126893A1, “[(1,4,5-TRISUBSTITUTED-1H-PYRAZOL-3-YL)SULFANYL]ACETIC ACID DERIVATIVES, SALTS THEREOF, AND USE THEREOF AS ACTIVE HERBICIDAL INGREDIENTS” (BAYER AKTIENGESELLSCHAFT, priority 2020, published 2023)

tested on: Alopecurus myosuroides; assay: Pre-emergence herbicidal effect against ALOMY; type: in vivo; settings: 1280 g/ha, visual score after 3 weeks, 100% = plants have died, 0% = like control plants
Method in brief: (§1)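 Visual rating against untreated controls after 3 weeks in greenhouse, from 0% (no difference) to 100% (dead plants). Compound, as WP or EC with 0.2% wetting agent in 600 to 800 L/ha water, applied to covering soil over seeds sown in sandy loam.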

| Structure (SMILES) | Pre-emergence action against ALOMY [%] |
| --- | --- |
| CCOC(=O)C(C)Sc1nn(-c2ccccc2F)c(-c2ccc(F)c(F)c2)c1Br (stereo not drawn) [Example I-015] | 100 |
| COC(=O)CNC(=O)CSc1nn(-c2ccccc2F)c(-c2cccnc2)c1Br [VII-007] | 90 |

tested on: Tripleurospermum inodorum; assay: Post-emergence herbicidal effect against MATIN; type: in vivo; settings: 1280 g/ha, visual assessment about 3 weeks after treatment, 100% = plants have died, 0% = like control plants
Method in brief: (§2)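 Activity scored visually as percent damage relative to untreated plants (100% = dead) roughly 3 weeks post-spray. Plants at the one-leaf stage, 2–3 weeks old in sandy loam under greenhouse conditions, received WP/EC formulations in 600–800 l/ha water plus 0.2% wetting agent.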

| Structure (SMILES) | Post-emergence action against MATIN [%] |
| --- | --- |
| COC(=O)CNC(=O)CSc1nn(-c2ccccc2F)c(-c2cccnc2)c1Br [VII-007] | 90 |

tested on: Echinochloa crus-galli; assay: Post-emergence herbicidal effect against ECHCG; type: in vivo; settings: 1280 g/ha, visual score after about 3 weeks, 100% = plants have died, 0% = like control plants
Method in brief: as §2

| Structure (SMILES) | Post-emergence action against ECHCG [%] |
| --- | --- |
| CCOC(=O)C(C)Sc1nn(-c2ccccc2F)c(-c2ccc(F)c(F)c2)c1Br (stereo not drawn) [Example I-015] | 100 |
| COC(=O)CNC(=O)CSc1nn(-c2ccccc2F)c(-c2cccnc2)c1Br [VII-007] | 90 |

tested on: Stellaria media; assay: Pre-emergence herbicidal effect against STEME; type: in vivo; settings: 1280 g/ha, visual score after 3 weeks, 100% = plants have died, 0% = like control plants
Method in brief: as §1

| Structure (SMILES) | Pre-emergence action against STEME [%] |
| --- | --- |
| CCOC(=O)C(C)Sc1nn(-c2ccccc2F)c(-c2ccc(F)c(F)c2)c1Br (stereo not drawn) [Example I-015] | 100 |
| COC(=O)CNC(=O)CSc1nn(-c2ccccc2F)c(-c2cccnc2)c1Br [VII-007] | 90 |

tested on: Tripleurospermum inodorum; assay: Pre-emergence herbicidal effect against MATIN; type: in vivo; settings: 1280 g/ha, visual score after 3 weeks, 100% = plants have died, 0% = like control plants
Method in brief: as §1

| Structure (SMILES) | Pre-emergence action against MATIN [%] |
| --- | --- |
| CCOC(=O)C(C)Sc1nn(-c2ccccc2F)c(-c2ccc(F)c(F)c2)c1Br (stereo not drawn) [Example I-015] | 100 |
| COC(=O)CNC(=O)CSc1nn(-c2ccccc2F)c(-c2cccnc2)c1Br [VII-007] | 90 |

tested on: Lolium rigidum; assay: Pre-emergence herbicidal effect against LOLRI; type: in vivo; settings: 1280 g/ha, visual score after 3 weeks, 100% = plants have died, 0% = like control plants
Method in brief: as §1

| Structure (SMILES) | Pre-emergence action against LOLRI [%] |
| --- | --- |
| CCOC(=O)C(C)Sc1nn(-c2ccccc2F)c(-c2ccc(F)c(F)c2)c1Br (stereo not drawn) [Example I-015] | 100 |

tested on: Stellaria media; assay: Post-emergence herbicidal effect against STEME; type: in vivo; settings: 1280 g/ha, visual assessment about 3 weeks after treatment, 100% = plants have died, 0% = like control plants
Method in brief: as §2

| Structure (SMILES) | Post-emergence action against STEME [%] |
| --- | --- |
| COC(=O)CNC(=O)CSc1nn(-c2ccccc2F)c(-c2cccnc2)c1Br [VII-007] | 90 |

tested on: Poa annua; assay: Post-emergence herbicidal effect against POAAN; type: in vivo; settings: 1280 g/ha, visual assessment about 3 weeks after treatment, 100% = plants have died, 0% = like control plants
Method in brief: as §2

| Structure (SMILES) | Post-emergence action against POAAN [%] |
| --- | --- |
| CCOC(=O)C(C)Sc1nn(-c2ccccc2F)c(-c2ccc(F)c(F)c2)c1Br (stereo not drawn) [Example I-015] | 100 |
| COC(=O)CNC(=O)CSc1nn(-c2ccccc2F)c(-c2cccnc2)c1Br [VII-007] | 90 |

tested on: Abutylon threophrasti; assay: Post-emergence herbicidal effect against ABUTH; type: in vivo; settings: 1280 g/ha, visual assessment about 3 weeks after treatment, 100% = plants have died, 0% = like control plants
Method in brief: as §2

| Structure (SMILES) | Post-emergence action against ABUTH [%] |
| --- | --- |
| CCOC(=O)C(C)Sc1nn(-c2ccccc2F)c(-c2ccc(F)c(F)c2)c1Br (stereo not drawn) [Example I-015] | 90 |
| COC(=O)CNC(=O)CSc1nn(-c2ccccc2F)c(-c2cccnc2)c1Br [VII-007] | 90 |

tested on: Veronica persica; assay: Post-emergence herbicidal effect against VERPE; type: in vivo; settings: 1280 g/ha, visual assessment about 3 weeks after treatment, 100% = plants have died, 0% = like control plants
Method in brief: as §2

| Structure (SMILES) | Post-emergence action against VERPE [%] |
| --- | --- |
| CCOC(=O)C(C)Sc1nn(-c2ccccc2F)c(-c2ccc(F)c(F)c2)c1Br (stereo not drawn) [Example I-015] | 100 |
| COC(=O)CNC(=O)CSc1nn(-c2ccccc2F)c(-c2cccnc2)c1Br [VII-007] | 90 |

tested on: Bassia scoparia; assay: Post-emergence herbicidal effect against KCHSC; type: in vivo; settings: 1280 g/ha, visual assessment about 3 weeks after treatment, 100% = plants have died, 0% = like control plants
Method in brief: as §2

| Structure (SMILES) | Post-emergence action against KCHSC [%] |
| --- | --- |
| CCOC(=O)C(C)Sc1nn(-c2ccccc2F)c(-c2ccc(F)c(F)c2)c1Br (stereo not drawn) [Example I-015] | 90 |
| COC(=O)CNC(=O)CSc1nn(-c2ccccc2F)c(-c2cccnc2)c1Br [VII-007] | 90 |

tested on: Alopecurus myosuroides; assay: Post-emergence herbicidal effect against ALOMY; type: in vivo; settings: 1280 g/ha, visual score after about 3 weeks, 100% = plants have died, 0% = like control plants
Method in brief: as §2

| Structure (SMILES) | Post-emergence action against ALOMY [%] |
| --- | --- |
| CCOC(=O)C(C)Sc1nn(-c2ccccc2F)c(-c2ccc(F)c(F)c2)c1Br (stereo not drawn) [Example I-015] | 100 |
| COC(=O)CNC(=O)CSc1nn(-c2ccccc2F)c(-c2cccnc2)c1Br [VII-007] | 90 |

tested on: Echinochloa crus-galli; assay: Pre-emergence herbicidal effect against ECHCG; type: in vivo; settings: 1280 g/ha, visual score after 3 weeks, 100% = plants have died, 0% = like control plants
Method in brief: as §1

| Structure (SMILES) | Pre-emergence action against ECHCG [%] |
| --- | --- |
| CCOC(=O)C(C)Sc1nn(-c2ccccc2F)c(-c2ccc(F)c(F)c2)c1Br (stereo not drawn) [Example I-015] | 100 |
| COC(=O)CNC(=O)CSc1nn(-c2ccccc2F)c(-c2cccnc2)c1Br [VII-007] | 100 |

tested on: Bassia scoparia; assay: Pre-emergence herbicidal effect against KCHSC; type: in vivo; settings: 1280 g/ha, visual score after 3 weeks, 100% = plants have died, 0% = like control plants
Source text: 1. Pre-emergence herbicidal effect and crop plant compatibility Seeds of monocotyledonous and dicotyledonous weed plants and crop plants are laid out in sandy loam soil in wood-fibre pots and covered with soil. The compounds of the invention, formulated in the form of wettable powders (WP) or as emulsion concentrates (EC), are then applied to the surface of the covering soil as aqueous suspension or emulsion at a water application rate equating to 600 to 800 L/ha with addition of 0.2% wetting agent. After the treatment, the pots are placed in a greenhouse and kept under good growth conditions for the trial plants. The damage to the test plants is scored visually after a test period of 3 weeks by comparison with untreated controls (herbicidal activity in percent (%): 100% activity=the plants have died, 0% activity=like control plants). [table]

| Structure (SMILES) | Pre-emergence action against KCHSC [%] |
| --- | --- |
| CCOC(=O)C(C)Sc1nn(-c2ccccc2F)c(-c2ccc(F)c(F)c2)c1Br (stereo not drawn) [Example I-015] | 100 |
| COC(=O)CNC(=O)CSc1nn(-c2ccccc2F)c(-c2cccnc2)c1Br [VII-007] | 90 |

tested on: Setaria viridis; assay: Pre-emergence herbicidal effect against SETVI; type: in vivo; settings: 1280 g/ha, visual score after 3 weeks, 100% = plants have died, 0% = like control plants
Method in brief: as §1

| Structure (SMILES) | Pre-emergence action against SETVI [%] |
| --- | --- |
| CCOC(=O)C(C)Sc1nn(-c2ccccc2F)c(-c2ccc(F)c(F)c2)c1Br (stereo not drawn) [Example I-015] | 100 |
| COC(=O)CNC(=O)CSc1nn(-c2ccccc2F)c(-c2cccnc2)c1Br [VII-007] | 100 |

tested on: Poa annua; assay: Pre-emergence herbicidal effect against POAAN; type: in vivo; settings: 1280 g/ha, visual score after 3 weeks, 100% = plants have died, 0% = like control plants
Method in brief: as §1

| Structure (SMILES) | Pre-emergence action against POAAN [%] |
| --- | --- |
| CCOC(=O)C(C)Sc1nn(-c2ccccc2F)c(-c2ccc(F)c(F)c2)c1Br (stereo not drawn) [Example I-015] | 100 |
| COC(=O)CNC(=O)CSc1nn(-c2ccccc2F)c(-c2cccnc2)c1Br [VII-007] | 100 |

tested on: Veronica persica; assay: Pre-emergence herbicidal effect against VERPE; type: in vivo; settings: 1280 g/ha, visual score after 3 weeks, 100% = plants have died, 0% = like control plants
Method in brief: as §1

| Structure (SMILES) | Pre-emergence action against VERPE [%] |
| --- | --- |
| CCOC(=O)C(C)Sc1nn(-c2ccccc2F)c(-c2ccc(F)c(F)c2)c1Br (stereo not drawn) [Example I-015] | 100 |
| COC(=O)CNC(=O)CSc1nn(-c2ccccc2F)c(-c2cccnc2)c1Br [VII-007] | 90 |

tested on: Digitaria sanguinalis; assay: Pre-emergence herbicidal effect against DIGSA; type: in vivo; settings: 1280 g/ha, visual score after 3 weeks, 100% = plants have died, 0% = like control plants
Method in brief: as §1

| Structure (SMILES) | Pre-emergence action against DIGSA [%] |
| --- | --- |
| CCOC(=O)C(C)Sc1nn(-c2ccccc2F)c(-c2ccc(F)c(F)c2)c1Br (stereo not drawn) [Example I-015] | 100 |

tested on: Setaria viridis; assay: Post-emergence herbicidal effect against SETVI; type: in vivo; settings: 1280 g/ha, visual assessment about 3 weeks after treatment, 100% = plants have died, 0% = like control plants
Method in brief: as §2

| Structure (SMILES) | Post-emergence action against SETVI [%] |
| --- | --- |
| COC(=O)CNC(=O)CSc1nn(-c2ccccc2F)c(-c2cccnc2)c1Br [VII-007] | 90 |
